Assay results reported in patent US7294643B2, “UK-1 analogues: methods of preparation and use” (Board of Regents, The University of Texas System, priority 2002, dated 2007).

Key:
[1] = test system: double-stranded DNA oligonucleotide; assay: DNA binding by ESI-MS; set-up: key: MetalDepend.: all ligand-DNA complex ions also contained a metal ion.; None: no ligand-DNA complex ions observed.; MetalIndepend.: ligand-DNA and ligand-DNA-metal ion complex ions observed; details: ligand-DNA complex ions, presence or absence of added NiCl2
[2] = test system: SK-N-MC; assay: alamarBlue cytotoxicity assay, SK-N-MC; type: cell-based; details: Homo sapiens
Description: (§1) Cytotoxicity Assays. Cell culture cytotoxicity assays were performed using the. alamarBlue method, as described by Ahmed et al., J. Immun. Methods 1994, 170, 211-224, which is incorporated herein by reference. Briefly, aliquots of 100 μL of cell suspension (1.0-2.5×10^3 cells) was placed in 96-well microtiter plates in an atmosphere of 5% CO2 at 37° C. After 24 hours, 100 μL of culture medium and 2 μL of compound in vehicle (culture media with 40% pyridine) or vehicle alone were added, and the plates incubated an additional 72 hours. The final pyridine concentration in all cases was 0.4%; at this pyridine concentration there was no affect on the growth of cells compared to cells in culture media without added pyridine. […] After the culture media had been removed from each well, 200 μL of fresh media and 20 μL of 90% alamarBlue reagent were added, followed by an additional 6 h incubation. The fluorescent intensity was measured using a Spectrafluor Plus plate reader with excitation at 530 nm and emission at 590 nm. Results are reported as IC50 values, the average concentration required to produce a decrease of fluorescent intensity of 50% relative to vehicle-treated controls in two separate determinations.

[3] = test system: HT-29 cells; assay: alamarBlue cytotoxicity assay, HT-29; type: cell-based; details: Homo sapiens; HT-29, alamarBlue, 72 h
Description: as §1

[4] = test system: SK-N-D7; assay: alamarBlue cytotoxicity assay, SK-N-D7; type: cell-based
Description: as §1

[5] = test system: SKBR3; assay: alamarBlue cytotoxicity assay, SKBR3; type: cell-based; details: Homo sapiens, SK-BR-3
Description: as §1

[6] = test system: CHP-212; assay: alamarBlue cytotoxicity assay, CHP-212; type: cell-based; details: Homo sapiens; CHP-212, alamarBlue
Description: as §1

[7] = test system: BT-20; assay: alamarBlue cytotoxicity assay, BT-20; type: cell-based; details: Homo sapiens; BT-20, alamarBlue
Description: as §1

[8] = test system: A549; assay: alamarBlue cytotoxicity assay, A549; type: cell-based; details: Homo sapiens
Description: as §1

[9] = test system: DU145; assay: alamarBlue cytotoxicity assay, DU145; type: cell-based; details: Homo sapiens, DU-145
Description: as §1

[10] = test system: NGP neuroblastoma cell line; assay: alamarBlue cytotoxicity assay, NGP; type: cell-based
Description: as §1

[11] = Metal ion binding by continuous variation, Ca2+; details: Ca^2+, methanol, 1:1 complex
Description: Previous work indicated the metal ion binding mechanism of UK-1, so the method of continuous variation was used to determine the ability of selected UK-1analogues to bind a variety of metal ions. Methanolic solutions of UK-1 or UK-1 analogues and metal ion salts [Ca(NO3)2, Mg(NO3)2, Zn(NO3)2, or Fe(NO3)3] at various molar ratios, and 20 μM combined total concentration, were prepared and the absorbance at 418 nm was determined. […] Compound 2.1 does bind with Ca^2+ and Zn^2+ better than UK-1.
Continuous variation plots. A 100 μM solution of UK-1 or analogue and 100 AM solutions of Ca(NO3)2, Mg(NO3)2, Zn(NO3)2, or Fe(NO3)3 were prepared in methanol. From these stock solutions, 15 samples (1 mL) of varying mole fraction of the metal ion were prepared at a constant, combined concentration of 20 μM for the ligand and the metal ion. The change in absorbance was monitored from 500 to 200 nm for each sample using as a reference a 1 mL solution containing the same concentration of ligand as the sample being measured but without the metal ion. The maximum absorbance change was typically around 418 nm but varied somewhat for each metal ion. The absorbance at 418 nm was plotted as a function of the mole fraction of the metal ion and the maximum absorbance change was determined. The absorbance of a sample containing the metal ion concentration corresponding to this maximum change and a 15 fold excess of metal ion at this ligand concentration, subtracted from a reference containing the same concentration of ligand but no metal ion was used to normalize the curve and obtain the conditional formation constant as described in the paper to Likussar, W.; Boltz, D. F. Anal. Chem. 1971, 43, 1265-1272, which is incorporated herein by reference.

COC(=O)c1cccc2oc(-c3cccc4oc(-c5ccccc5O)nc34)nc12 [UK-1]
DNA-Binding ESI-MS [1]: MetalDepend.^d | IC50 [2]: 1100 nM | IC50 [3]: 65000 nM | IC50 [4]: 170 nM | IC50 [5]: 100 nM | IC50 [6]: 12000 nM | IC50 [7]: 170 nM | IC50 [8]: 1900 nM | IC50 [9]: 200 nM | IC50 ([10]; alamarBlue): 20 nM | IC50 ([10]; bound stated): < 100 nM | Association constant for metal ion binding [11]: 40000 M⁻¹
